Molecular target: T1, ChrHI (ChrH with ChrI) (Chryseobacterium sp. JM1, UniProt A0A086ASD2)
T1 construct: gene IW22_14845
Assay: MALDI-TOF MS of in vitro reaction products after LysC digestion
Type: biochemical
Conditions: precursor peptide ChrA as co-substrate, DTT, aerobic, iron-containing enzyme; methyl donor; also run with 13CD3-SAM (labelled compound)

T1 sequence (A0A086ASD2 entry or part of it): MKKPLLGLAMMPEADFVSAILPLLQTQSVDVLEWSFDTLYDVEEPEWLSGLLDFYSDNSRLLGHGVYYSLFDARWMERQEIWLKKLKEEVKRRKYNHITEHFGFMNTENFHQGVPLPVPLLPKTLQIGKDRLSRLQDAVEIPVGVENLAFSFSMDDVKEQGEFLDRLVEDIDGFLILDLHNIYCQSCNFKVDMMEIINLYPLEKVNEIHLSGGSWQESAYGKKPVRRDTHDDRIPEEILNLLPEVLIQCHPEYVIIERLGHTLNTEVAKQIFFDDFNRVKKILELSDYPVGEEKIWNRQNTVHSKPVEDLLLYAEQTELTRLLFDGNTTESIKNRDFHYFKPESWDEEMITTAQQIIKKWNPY

C[S+](CC[C@H](N)C(=O)O)C[C@H]1O[C@@H](n2cnc3c(N)ncnc32)[C@H](O)[C@@H]1O (stereo partly shown) [SAM, S-adenosylmethionine]
MALDI-TOF MS of in vitro reaction products after LysC digestion: SAM is the methyl donor in the posttranslational modification of ChrA by ChrHI
